# Laboratory results: publication PMC10877564, “Activity of Gut-Derived Nisin-like Lantibiotics against Human Gut Pathogens and Commensals” (ACS Chemical Biology, 2024)
# Positions of bridges follow the written chain, without caps; N, C: chain ends. Non-standard residues stand in square brackets, D forms with d. No end group written: not given here. Abu = CC[C@H](N)C(=O)O; Dhb = C/C=C(\N)C(=O)O; Dha = C=C(N)C(=O)O
# Tests used:
# [1] = tested on: Coprococcus eutactus MSK.18.32; assay: MIC assay, anaerobic broth dilution; type: cell-based; conditions: Coprococcus eutactus MSK.18.32; anaerobic, BHIS, 37 °C, 48 h, 3-fold serial dilution
# Description: Antibiotic treatment may result in collateral damage to commensal bacteria in the human microbiome, leading to dysbiosis and susceptibility to various diseases.[44] How lantibiotics impact Gram-positive commensals from the human gut has remained unclear. Therefore, we performed antimicrobial activity tests of these lantibiotics against selected Gram-positive human gut commensals, most of which belong to the Lachnospiraceae family, one of the most abundant bacterial families in the human gut.[27] In general, human gut commensals were more susceptible to the set of investigated lantibiotics compared to pathogens (Figure 3).
# Elution Buffer (4 M guanidine hydrochloride, 20 mM Tris HCl, pH 7.5 at 25 °C, 100 mM NaCl, 1 M imidazole). Peptides eluted from the Ni resin were concentrated and desalted using 3 kDa Amicon filters (Millipore). For leader peptide removal, the peptide (1:20 trypsin to peptide) was incubated with the trypsin protease in 50 mM Tris-HCl, pH 8 overnight at 37 °C. Lastly, the core peptides were further purified with HPLC using an Agilent 1200 instrument (Agilent) as specified in general methods. About 1.5 mg recombinant peptide was obtained after HPLC purification per […]
# All MIC assays were performed under anaerobic condition. […] Lantibiotics were dissolved in DPBS, and concentrations were determined by BCA assay (Pierce) according to the manufacturer’s protocol. […]
# [2] = Liposome permeabilization assay, liposomes with lipid II; type: biochemical; conditions: 375 nM lantibiotic; DOPC with 0.1 mol% lipid II, 50 µM phospholipid; pyranine fluorescence, 30 min, room temperature; three replicates; Figure S7B
# Procedure: (§1) To further investigate the mechanisms of action of these nisin-like lantibiotics, we performed liposome permeabilization assays using liposomes with or without lipid II (Figure S7).
# (§2) Liposome Permeabilization Assay
# (§3) To prepare pyranine encapsulated liposomes, DOPC (25 mg/mL in CHCl3, purchased from Avanti) was deposited into a vial and mixed with lipid II (dissolved in 2:1 CHCl3: MeOH, prepared chemoenzymatically).6 The solvent was removed using a stream of N2 leaving a thin film. Residual solvent was removed by storing it overnight in a vacuum desiccator. The film was rehydrated in buffer (5 mM Tricine, 5 mM MES, 5 mM NaCl, 1 mM pyranine pH = 6.0) and suspended with vortexing. The suspension was subjected to freeze-thaw three times before extrusion through a […] polycarbonate filter (21 passes). Excess pyranine was removed by passing the liposome solution through a Sephadex G-50 column previously equilibrated with buffer (5 mM Tricine, 5 mM MES, 5 mM NaCl, pH = 6.0). The eluted liposome solution containing the highest concentration of encapsulated pyranine (as determined visually with a UV lamp) was immediately placed on ice. Phospholipid concentration was determined by NMR as described previously.7 To measure liposome permeabilization, to a 96 well black polystyrene plate was added buffer (5 mM Tricine, 5 mM MES, 5 mM NaCl, pH = 8.0; 97 µL) and liposome solution (3 µL; 50 µM phospholipid concentration during assay). The wells were allowed to equilibrate for 8 min at room temperature then antibiotic was added. The antibiotic concentration in each well was 375 nM.
# (§4) Pyranine fluorescence was monitored for 30 min then Triton X-100 was added to a final concentration of 0.1% and pyranine fluorescence was monitored for an additional 5 min. The pyranine fluorescence signal was max-min normalized. […]
# (§5) Fig. S7 Liposome permeabilization assays of nisin-like lantibiotics. (A) Scheme of liposome […]
# (§6) low fluorescence. Fluorescence increases upon liposome permeabilization and pH increase . (B) Fraction of liposomes permeabilized by lantibiotics (375 nM). Liposomes were composed of DOPC with or without 0.1 mol% lipid II. Error bars represent the standard of deviation of three […]
# (§7) (1 picture or pasted object on this page, not shown here)
# [3] = Liposome permeabilization assay, liposomes without lipid II; type: biochemical; conditions: 375 nM lantibiotic; DOPC, 50 µM phospholipid; pyranine fluorescence, 30 min; three replicates; Figure S7
# Procedure: as §1, §2, §3, §4, §5, §6, §7
substance,measurement,setting,value
"nisin A (I[Dhb]AI[Dha]LC[Abu]PGCK[Abu]GALMGCNMK[Abu]A[Abu]CHCSIHV[Dha]K; thioether 8-11, 13-19, 23-26, 25-28, 3-7; UniProt P13068 24-57, looked up) [prototypical class I lantibiotic produced by L. lactis, food preservative; commercial nisin A]",nisin A MIC,[1],0.0110 µM
same,permeabilization of lipid II-containing liposomes (in words),[2],strongly induced permeabilization
same,permeabilization of liposomes without lipid II compared to liposomes with lipid II (in words),[3],decreased permeabilization activities
